We go through four compounds from PMC12736008, “New Dimethylpyridine-3-Carboxamide Derivatives as MMP-13 Inhibitors with Anticancer Activity” (Molecules, 2025).

Structures are written as SMILES.

The target in one data set is T1, HSA/Dansyl-L-Phe (Homo sapiens, UniProt P02768).
T1 construct: purchased Sigma-Aldrich
The experiment in a line: Marker displacement from HSA/Dansyl-L-Phe complex (Sudlow site II). It counts as binding. The conditions noted are these: room temperature. The text has this:
(§1) The human serum albumin (HSA) has two main drug-binding sites, known as Sudlow site I and Sudlow site II, located in subdomains IIA and IIIA of the albumin structure, respectively. […] In addition to these main sites, HSA has the capacity to bind ligands in other regions, including histidine residues, the N-terminus of the molecule, and metal binding sites. However, it is most common for drugs to bind to Sudlow I and Sudlow II. In order to study binding to a specific site in the protein, fluorescent markers, Dansyl-L-Gly and Dansyl-L-Phe, were used. The Dansyl-L-Gly interacts with Sudllow I, while the Dansyl-L-Phe prefers Sudllow II [41, 42]. The tested compounds were added in portions to the solution that contained the HSA/marker complex, and the fluorescence spectrum was recorded (Figure 11 and Figure 12). The percentage of compound exchange in the albumin pocket was calculated using Equation (6):(6) displacement % =F^0 −F /F^0 where F^0 is the maximum fluorescence intensity of HSA/Dansyl-L-Gly complex, and F is the maximum fluorescence intensity after a quencher addition. The calculated data were collected in Table 6. It was observed that only compound 3b displaces from the Dansyl-L-Gly binding site, as indicated by a decrease in fluorescence intensity with increasing concentration of this derivative, but only to approximately 8%. […] The band intensity increases slightly, which may be due to the dilution of the solution. The dilution of the sample leads to an increase in the average distance between molecules. This, in turn, results in a reduction in the number of collisions and reabsorptions, thereby enhancing the efficiency of fluorescence emission. Nevertheless, the binding site for Dansyl-L-Phe was displaced by all of the tested derivatives.
Solutions of Dansyl-L-Phe (Chem-Norm Biotech, Wuhan, China) and Dansyl-L-Gly (Sigma-Aldrich, Tokyo, Japan) were prepared by dissolving them separately in ethanol to a final concentration of 1·10^−3 mol/dm^3. The HSA solution was prepared in the same way as for titration binding measurements. Spectra were recorded at room temperature using a Cary Eclipse 500 spectrophotometer (Agilent, Santa Clara, CA, USA) with an excitation wavelength of 350 nm, and an emission range of 410–670 nm and the PMT voltages were (V) 700 and 650 for Dansyl-L-Gly and Dansyl-L-Phe, respectively. The complexes were prepared by mixing the HSA solution with the dansylated markers, and then adding the solution of the studied compounds from a ratio of 0 to 11.0 molar at the same increments, using the same protocol as in the spectroscopy studies.

A further data set relates to NHDF cells. The experiment in a line: MTT assay, NHDF. The data set is classed as cell-based, human. The conditions noted are these: 24 h, 0.004 mM to 0.5 mM. The text has this:
(§2) As mentioned earlier, MMP-13 is overexpressed and functionally significant in various cancers, including melanoma and colorectal carcinoma. For instance, high MMP-13 levels have been correlated with metastasis and poor survival in melanoma patients. In colorectal cancer, elevated MMP-13 activity has been observed in tumors compared to normal mucosa, and its expression is associated with a worse prognosis. Based on computational studies, four out of the eleven designed compounds showing the most promising predicted activity against MMP-13 were selected for biological evaluation. For the MTT assay, NHDF cells were used as the healthy reference cell line, while A375 (melanoma) and HT-29 (colorectal adenocarcinoma cancer) cell lines were chosen as cancer models.
(§3) Experiments were conducted using two cancer cell lines and, as a control, a normal human dermal fibroblasts (NHDF; ATCC PCS-201-012). The A375 cell line (human melanoma, ATCC CRL-1619), and HT-29 cell line (human colorectal adenocarcinoma, ATCC HTB-38) were cultured in DMEM (Dulbecco’s Modified Eagle Medium, Institute of Immunology and Experimental Therapy (IITD), Wrocław, Poland) supplemented with 1% antibiotics (10 U/mL penicillin and 10 µg/mL streptomycin, Sigma-Aldrich, St Louis, MO, USA), 1% glutamine (Sigma-Aldrich, St Louis, MO, USA) and 10% fetal bovine serum (FBS, Gibco, Grand Island, NY, USA). For NHDF cultures, α-MEM (α-Minimum Essentials Medium, Institute of Immunology and Experimental Therapy (IITD), Poland) was used with the same supplement combination as for the cancer cell lines. All cells were maintained in a humidified incubator (INCO 105, Memmert GmbH, Schwabach, Germany) at 37 °C with 5% CO2 and 95% humidity. Cells were passaged routinely by trypsinization (twice a week). For the MTT (3-(4,5-simethylthiazol-2,5-diphenyltetrazolinum bromide), Sigma, St. Louis, MO, USA) assay, cells were used after 2–4 passages, when they reached approximately 80% confluence.
(§4) All tested compounds were dissolved in DMSO to obtain stock solutions with a final concentration of 50 mM (3a, 3b, 3e), 40 mM (3f, 3g, 3i, 3j), and 35 mM (3h, 3k). […] In the next step, 10 µL of each stock solution was added to 990 µL of supplemented medium.
(§5) The MTT assay was performed in 96-well plates, with a seeding density of 1 × 10^4 cells per well. All cell lines were incubated for 24 h in their respective media: α-MEM for (NHDF cells) and DMEM for (A375 and HT-29) cells. After incubation, the medium was removed and replaced with fresh medium containing the tested compounds at concentrations ranging from 0.004 mM to 0.5 mM. […] Absorbance was measured spectrophotometrically at a wavelength of 570 nm using a BioTek SYNERGY H1 microplate reader (Agilent, Santa Clara, CA, USA).
Background: Tetrazolium assays rely on reduction of a dye to a coloured formazan, in cell work by metabolically active cells.

The test system of data set [1] is HT-29 (colorectal adenocarcinoma) cells. The experiment in a line: MTT assay, HT-29. The data set is classed as cell-based, human. Particulars: for reduction in cancer cell viability / anticancer potential (HT-29): MTT, 24 h, 0.004 mM to 0.5 mM.
Excerpt: as §2, §3, §4, §5

Another data set addresses T2, HSA/Dansyl-L-Gly (Homo sapiens, UniProt P02768).
T2 construct: purchased Sigma-Aldrich
In words: Marker displacement from HSA/Dansyl-L-Gly complex (Sudlow site I). The data set is classed as binding. The conditions noted are these: room temperature.
Excerpt: as §1, with “The dilution of the sample leads to an increase in the average distance between molecules.” left out, “Nevertheless, the binding site for Dansyl-L-Phe was displaced by all of the tested derivatives.” left out
Solutions of Dansyl-L-Phe (Chem-Norm Biotech, Wuhan, China) and Dansyl-L-Gly (Sigma-Aldrich, Tokyo, Japan) were prepared by dissolving them separately in ethanol to a final concentration of 1·10^−3 mol/dm^3. […] Spectra were recorded at room temperature using a Cary Eclipse 500 spectrophotometer (Agilent, Santa Clara, CA, USA) with an excitation wavelength of 350 nm, and an emission range of 410–670 nm and the PMT voltages were (V) 700 and 650 for Dansyl-L-Gly and Dansyl-L-Phe, respectively. […]

T1 sequence (P02768 25-609): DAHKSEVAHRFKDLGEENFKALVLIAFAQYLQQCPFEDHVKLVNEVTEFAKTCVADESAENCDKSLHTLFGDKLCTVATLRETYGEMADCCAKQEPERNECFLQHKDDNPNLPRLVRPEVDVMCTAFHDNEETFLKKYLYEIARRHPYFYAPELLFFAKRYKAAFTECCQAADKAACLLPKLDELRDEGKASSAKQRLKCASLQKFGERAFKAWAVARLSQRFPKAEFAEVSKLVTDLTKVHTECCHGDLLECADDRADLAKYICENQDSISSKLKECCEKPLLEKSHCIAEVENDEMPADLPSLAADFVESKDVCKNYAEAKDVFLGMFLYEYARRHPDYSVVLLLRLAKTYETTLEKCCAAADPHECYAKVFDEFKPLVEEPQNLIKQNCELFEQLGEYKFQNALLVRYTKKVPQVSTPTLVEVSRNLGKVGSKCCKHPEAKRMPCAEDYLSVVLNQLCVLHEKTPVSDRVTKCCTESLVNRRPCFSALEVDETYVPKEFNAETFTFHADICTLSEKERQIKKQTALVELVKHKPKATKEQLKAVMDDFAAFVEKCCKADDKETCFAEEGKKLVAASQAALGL
T2 sequence (P02768 25-609): as above

Turning to `Cc1cc(C)c(C(=O)NCC(=O)NCc2ccc(Oc3ccccc3)cc2)c(S)n1` [Compound 3b, 4,6-dimethyl-N-{2-[(4-phenoxybenzyl)amino]-2-oxoethyl}-2-sulfanylpyridine-3-carboxamide], the “Marker Displacement Percentage HSA/Dansyl-L-Gly” value on HSA/Dansyl-L-Phe turned out to be 35.2%. Also, the “toxicity toward healthy NHDF cells” value in the data set with NHDF cells is “lowest toxicity toward healthy cells”. The “selectivity ratio HT-29:NHDF” value in data set [1] (at a concentration of 0.5 mM) turned out to be 0.43.

In the case of `Cc1cc(C)c(C(=O)NCC(=O)NCc2ccc(Cl)cc2)c(S)n1` [Compound 3c, N-{2-[(4-chlorobenzyl)amino]-2-oxoethyl}-4,6-dimethyl-2-sulfanylpyridine-3-carboxamide], the figures for the “Marker Displacement Percentage HSA/Dansyl-L-Gly” value on HSA/Dansyl-L-Phe and at HSA/Dansyl-L-Gly were 18.5% and “no quenching occurs at all”, respectively. The “toxicity toward healthy NHDF cells” value with NHDF cells is given as “highest toxicity toward healthy NHDF”. The “reduction in cancer cell viability / anticancer potential (HT-29)” value in data set [1] is reported as “strongest reduction in cancer cell viability”.

In the case of `Cc1cc(C)c(C(=O)NCC(=O)NCc2ccccc2Cl)c(S)n1` [Compound 3d, N-{2-[(2-chlorobenzyl)amino]-2-oxoethyl}-4,6-dimethyl-2-sulfanylpyridine-3-carboxamide], the “Marker Displacement Percentage HSA/Dansyl-L-Gly” value is reported as 10.6% on HSA/Dansyl-L-Phe and “no quenching occurs at all” on HSA/Dansyl-L-Gly. Moreover, the “toxicity toward healthy NHDF cells” value in the data set with NHDF cells was “highest toxicity toward healthy NHDF”. For the same compound, the “reduction in cancer cell viability / anticancer potential (HT-29)” value in data set [1] is recorded as “strongest reduction in cancer cell viability”.

Take `Cc1cc(C)c(C(=O)NCC(=O)NCc2ccccc2)c(S)n1` [Compound 3g, 4,6-dimethyl-N-[2-(benzylamino)-2-oxoethyl]-2-sulfanylpyridine-3-carboxamide]: the “Marker Displacement Percentage HSA/Dansyl-L-Gly” value on HSA/Dansyl-L-Phe was 11.1%; on HSA/Dansyl-L-Gly, “no quenching occurs at all”. Also, the “reduction in cancer cell viability / anticancer potential (HT-29)” value in data set [1] is given as “only moderate anticancer potential”.
